Square brackets hold non-standard residues; d marks the D form. Peptide text beside a SMILES is read from it. * marks the point of attachment. Sta = CC(C)C[C@H](N)[C@@H](O)CC(=O)O; Isovaleryl = CC(C)CC(=O)*
How the values were obtained:
APP-degrading protease = test: Assay of APP-degrading protease (Zn^2+-enhanced degradation of plasma 130 kDa APP); assay type: biochemical, human
[1] = test system: human brain membrane-derived APP; test: trypsin digestion of human brain membrane-derived APP, Western blot with 22C11; assay type: biochemical
human brain membrane-derived APP, sequence (P05067 18-288 limits assumed): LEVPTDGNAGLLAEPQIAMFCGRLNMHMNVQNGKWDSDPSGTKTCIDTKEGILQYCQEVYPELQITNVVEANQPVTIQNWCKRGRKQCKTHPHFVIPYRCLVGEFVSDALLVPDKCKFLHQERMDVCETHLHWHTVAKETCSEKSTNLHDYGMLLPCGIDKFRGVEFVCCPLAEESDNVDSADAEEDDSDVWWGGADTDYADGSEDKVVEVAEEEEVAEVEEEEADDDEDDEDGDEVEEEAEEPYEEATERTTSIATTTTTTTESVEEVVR
Text: The proteolytic activity of trypsin (Boehringer, Mannheim) was studied to determine whether it was modulated by a range of doses of heparin (Sigma) and ZnCl2. […] Western blots for APP using the APP binding monoclonal antibody 22C11 were used to monitor the progression of the proteolytic reaction and to detect breakdown products.

trypsin = test: tryptic activity on fluorogenic substrate Z-F-R-AMC; assay type: biochemical; settings: range of doses
[2] = dot-blot ^65Zn^2+ binding to synthetic peptides (putative zinc-binding domain of APP); settings: for ability to bind ^65Zn^2+: 16 μg peptide dot-blotted
Procedure: 16 μg of the synthesized peptide […], representing residues 181-214 of APP695 (or residues 181-200), or 16 μg of control peptide, was dissolved in 200 μl of blocking buffer (50 mM Tris-HCl, 1 mM MnCl2 10 mM β-mercaptoethanol, 20% methanol, pH 7.4) and dot-blotted onto PVDF (Immobilon-P, Millipore, Befored, Mass.) which had been pre-wetted with methanol. The blot was then incubated for 30 mins at 20° C. with 100,000 CPM of ^65Zn^2+ in blocking buffer, in the presence or absence of various concentrations of competing unlabeled Zn^2+ or other divalent cations. After incubation the dot-blot was washed three times with 200 μl of blocking buffer without MnCl2, the dot was excised and placed in 10 ml of scintillant and assayed by β-counting.

[3] = test system: human brain 130/110 kDa APP; test: ^65Zn binding to human brain 130/110 kDa APP (time course, competition, Scatchard); settings: for shift of competition curve relative to the Zn^2+ competition curve: competition for ^65Zn binding; for ^65Zn label competed off APP (of Bmax): unlabelled metal ion at 20 μM
Text: FIG. 4 is a graphical representation showing a time course analysis of ^65Zn binding to human brain 130/110 kDa APP. Amyloid protein precursor (APP) was purified according to the method in Moir et al. (1992). The preparation of purified 130 and 110 kDa APP was derived from human brain membrane extracts and contained the full-length precursor with carboxyl terminus intact but lacked the 17 residue signal peptide. The 130 and 110 kDa proteins were apparent in equal ratios on silver staining following polyacrylamide gel electrophoresis and were the only bands visible. The identity of these two proteins was confirmed by Western blots with monoclonal antibody 22C11 (which recognises an amino terminal epitope on APP), and by amino terminal sequencing. The protein concentration of the APP preparation was determined by amino acid analysis. Aliquots of APP (90 ng, =1.1 pmole, assuming the average amino acid formula weight of APP is =80 kDa) were incubated at 20° C. for the times indicated. Incubations (50 μl) were performed in 150 mM NaCl, 50 mM Tris-Hcl, pH 7.4 in the presence of 10^6 cpm of ^65Zn (175 nM). The incubation solution was then applied to a 1.1 ml bed volume Sephadex G25 (Pharmacia, Uppsala, Sweden) column pre-equilibrated with 150 mM NaCl, 50 mM Tris-HCl, pH 7.4 and allowed to settle before being desalted with 645 μl of the Equilibration buffer. […] The desalted protein was collected directly into counting tubes containing 10 ml aqueous counting scintillant. Less than two minutes was required to complete the desalting. The amount of ^65Zn bound to desalted APP was determined by counting the collected sample in a beta-counter set to the broadest channel. Counting was determined to be 51% efficient. The values shown are means±SD of n≧3 readings.
FIG. 5 is a graphical representation showing a competition analysis of ^65Zn binding to human brain 130/110 kDa APP. Aliquots of APP were incubated for 30 minutes with ^65Zn as in FIG. 4. The binding of the labelled Zn^2+ to APP was subjected to competition with unlabelled Zn^2+ in the form of the chloride salt. Data shown indicate the competition curves generated at pH 6.4 and 7.4. The binding of Zn^2+ to APP deteriorated at the lower pH (=45% of Bmax, pH 7.4). The values are means±SEM of n≧3 readings. The curves illustrated are typical of three experiments.
FIG. 6 is a graphical representation depicting a Scatchard analysis of ^65Zn binding to human brain 130/110 kDa APP.
Binding analysis was performed as follows: Aliquots of APP (90 ng, =1.1 pmole, assuming the average amino acid formula mass of APP is =80 kDa) were incubated at 20° C. Incubations (50 μl) were performed in 150 mM NaCl, 50 mM Tris-HCl, pH 7.4 in the presence of 10^6 CPM of ^65Zn (175 nM). The incubation solution was then applied to a 1.1 ml bed volume Sephadex G25 (Pharmacia, Uppsala, Sweden) column pre-equilibrated with 150 mM NaCl, 50 mM Tris-HCl, pH 7.4 and allowed to settle before being desalted with 645 μl of the equilibration buffer. […] The deslated protein was collected directly into counting tubes containing 10 ml aqueous counting scintillant (ACSII, Amersham). Less than two minutes was required to complete the desalting. The amount of ^65Zn bound to desalted APP was determined by counting the collected sample in a beta-counter set to the broadest channel. Counting was determined to be 51% efficient. The binding of the labelled Zn^2+ to APP was subjected to competition with unlabelled Zn^2+ and other metal chloride salts.

[4] = test system: human brain full-length APP; test: ^125I-APP binding to heparin-Sepharose; settings: for effect on profile of ^125I-APP elution from heparin-Sepharose: Co^2+ at 75 μM
Procedure: 100 kDa human brian full-length APP was iodinated by the Chloramine-T method. Iodinated APP (^125I-APP) was then separated from labelling reagents by Sephacryl G25 chromatography.
The column was then washed with 6 ml buffer 1 and the APP eluted with aliquots of high-NaCl buffers.

PC12 cells = test: Effect of extracellular zinc on cultured PC12 cells (APP by Western blot); assay type: cell-based; settings: 48 hr
Procedure: 10^6 PC12 cells were plated for 24 hr in the presence of Dulbecco's modified Eagle's medium (DMEM, N2) supplemented with 8% fetal calf serum (FCS). The medium was then removed and replaced with DMEM±2 to 50 μM ZnCl2 or another salt, and no FCS. Cells and media were harvested 48 hr later and aliquots of media, cell cytosol and membrane (following lysis and ultracentrifugation) were assayed for APP by Western blotting with mAb 22C11.

[5] = young adult control preparation, two hours at 37° C., 20 μM ZnCl2

## heparin [reference compound]
APP-degrading protease; [5]
  influence on Zn^2+-enhanced APP proteolysis: completely inhibited
[1]
  concentration at which protective effect saturated: 10 µM
[1]; trypsin 1:64, one hour at 37° C.
  heparin concentration causing marked reduction in rate and degree of brain APP degradation by trypsin: 100 nM
trypsin
  effect on tryptic activity: left tryptic activity unaltered

## carboxyamidomethylated 181-214 peptide: the 181-214 peptide where the cysteines had been modified by carboxyamidomethylation
[2]
  amount of ^65Zn^2+ binding relative to same quantity of 181-214 peptide: approximately 15%

## [Ca+2].[Cl-].[Cl-] [Ca^2+, reference compound]
[3]
  shift of competition curve relative to the Zn^2+ competition curve: shifted greater than two log units to the right
[4]
  effect on profile of ^125I-APP elution from heparin-Sepharose: did not alter the profile of ^125I-APP elution

## aprotinin
APP-degrading protease; [5]
  influence on Zn^2+-enhanced APP proteolysis: completely inhibited

## GVEFVCCPLAEESDNVDSADAEEDDSDVWWGGAD [residues 181-214 of APP]
[2]
  ability to bind ^65Zn^2+: able to bind Zn^2+ in a saturable and specific manner

## residues 645-655: peptide representing another region of the APP molecule (KTEEISEVKMD; UniProt P05067 662-672, looked up, fragment)
[2]
  ability to bind ^65Zn^2+: unable to bind Zn^2+

## residues 189-220 of APP695: synthetic peptide lacking the cysteine residues at positions 186/187 (LAEESDNVDSADAEEDDSDVWWGGADTDYADG; APP695; UniProt P05067 189-220, looked up, fragment)
[2]
  amount of ^65Zn^2+ binding relative to same quantity of 181-214 peptide: approximately 15%

## [Co+2] [Co^2+, reference compound]
[3]
  ^65Zn label competed off APP (of Bmax): 70%
[4]
  effect on profile of ^125I-APP elution from heparin-Sepharose: increased the recovery of ^125I-APP in the 100-500 and 500-2000 mM NaCl fractions

## residues 422-433: peptide representing another region of the APP molecule (VESLEQEAANER; UniProt P05067 439-450, looked up, fragment)
[2]
  ability to bind ^65Zn^2+: unable to bind Zn^2+

## CC(C)CC(=O)N[C@H](C(=O)N[C@H](C(=O)N[C@@H](CC(C)C)[C@@H](O)CC(=O)N[C@@H](C)C(=O)N[C@@H](CC(C)C)[C@@H](O)CC(=O)O)C(C)C)C(C)C [pepstatin A] (Isovaleryl-VV[Sta]A[Sta]-OH)
APP-degrading protease; […]
  influence on Zn^2+-enhanced APP proteolysis: Neither Al3Cl, the cysteine-protease inhibitor N-ethyl maleimide, nor the acid-protease inhibitor pepstatin A influenced the reaction

## residues 181-200 of APP: synthetic peptide representing about residues 181-200 of APP (SADAEEDDSDVWWGGADTDY; UniProt P05067 198-217, looked up, fragment)
[2]
  ability to bind ^65Zn^2+: bind zinc in a specific and saturable manner

## [Cl][Cu] [cuprous chloride, reference compound]
PC12 cells
  effect on APP released into the media compared with zinc: far smaller stimulatory effects

## [Cl-].[Cl-].[Mg+2] [Mg^2+, reference compound]
[3]
  shift of competition curve relative to the Zn^2+ competition curve: shifted greater than two log units to the right
[4]
  effect on profile of ^125I-APP elution from heparin-Sepharose: did not alter the profile of ^125I-APP elution

## Insulin A chain: control peptide
[2]
  ability to bind ^65Zn^2+: unable to bind Zn^2+

## [Cl][Al]([Cl])[Cl] [Al^3+]
[3]
  ^65Zn label competed off APP (of Bmax): 60%
[4]
  increase in ^125I-APP recovery in the 500-2000 mM NaCl fraction: approximately 4.5 fold
  effect on profile of ^125I-APP elution from heparin-Sepharose: decreased the recovery of ^125I-APP except in the 500-2000 mM NaCl fraction

## Insulin B chain: positive control
[2]
  ability to bind ^65Zn^2+: bound ^65Zn^2+

## O=C(O)CN(CCN(CC(=O)O)CC(=O)O)CC(=O)O [EDTA, ethylene diamine tetra acetic acid]
APP-degrading protease; [5]
  influence on Zn^2+-enhanced APP proteolysis: completely inhibited

## CCN1C(=O)C=CC1=O [N-ethyl maleimide, N-ethylmaleimide]
APP-degrading protease; [5]
  influence on Zn^2+-enhanced APP proteolysis: Neither Al3Cl, the cysteine-protease inhibitor N-ethyl maleimide, nor the acid-protease inhibitor pepstatin A influenced the reaction

## [Cl][Fe][Cl] [FeCl2, reference compound]
PC12 cells
  effect on APP released into the media compared with zinc: had a similar effect

## renin
[2]
  ability to bind ^65Zn^2+: unable to bind Zn^2+

## [Cl][Al]([Cl])[Cl] [Al3Cl, reference compound]
APP-degrading protease; [5]
  influence on Zn^2+-enhanced APP proteolysis: Neither Al3Cl, the cysteine-protease inhibitor N-ethyl maleimide, nor the acid-protease inhibitor pepstatin A influenced the reaction
PC12 cells
  effect on APP released into the media compared with zinc: far smaller stimulatory effects

## [Cu+2] [Cu^2+, reference compound]
[3]
  ^65Zn label competed off APP (of Bmax): 60%

## residues 581-601: peptide representing another region of the APP molecule (TETKTTVELLPVNGEFSLDDL; UniProt P05067 598-618, looked up, fragment)
[2]
  ability to bind ^65Zn^2+: unable to bind Zn^2+

B1: soya bean trypsin inhibitor (protein, UniProt P01070 25-205, looked up)
Trypsin inhibitor A: DFVLDNEGNPLENGGTYYILSDITAFGGIRAAPTGNERCPLTVVQSRNELDKGIGTIISSPYRIRFIAEGHPLSLKFDSFAVIMLCVGIPTEWSVVEDLPEGPAVKIGENKDAMDGWFRLERVSDDEFNNYKLVFCPQQAEDDKCGDIGISIDHDDGTRRLVVSKNKPLVVQFQKLDKESL
APP-degrading protease; [5]
  influence on Zn^2+-enhanced APP proteolysis: completely inhibited

B2: α1-antichymotrypsin (protein, UniProt P01011 24-423, looked up)
Alpha-1-antichymotrypsin: HPNSPLDEENLTQENQDRGTHVDLGLASANVDFAFSLYKQLVLKAPDKNVIFSPLSISTALAFLSLGAHNTTLTEILKGLKFNLTETSEAEIHQSFQHLLRTLNQSSDELQLSMGNAMFVKEQLSLLDRFTEDAKRLYGSEAFATDFQDSAAAKKLINDYVKNGTRGKITDLIKDLDSQTMMVLVNYIFFKAKWEMPFDPQDTHQSRFYLSKKKWVMVPMMSLHHLTIPYFRDEELSCTVVELKYTGNASALFILPDQDKMEEVEAMLLPETLKRWRDSLEFREIGELYLPKFSISRDYNLNDILLQLGIEEAFTSKADLSGITGARNLAVSQVVHKAVLDVFEEGTEASAATAVKITLLSALVETRTIVRFNRPFLMIIVPTDTQNIFFMSKVTNPKQA
APP-degrading protease; [5]
  influence on Zn^2+-enhanced APP proteolysis: incompletely inhibited

From patent US20040265847A1, “Method for treating Alzheimer's disease” (priority 1991, published 2004)
